Results on 2 compounds are retold here after ChEMBL document CHEMBL2021773, “Isolation, structure elucidation, and antibacterial activity of methiosetin, a tetramic acid from a tropical sooty mold (Capnodium sp.)” (2012).

The test system of test [1] is Staphylococcus aureus. As to the kind of experiment: Potency ratio, ratio of methiosetin MIC to compound MIC for Staphylococcus aureus EP167 by two fold serial broth dilution method. The format is functional.
In the next test the test system is Haemophilus influenzae. As to the kind of experiment: Antibacterial activity against Haemophilus influenzae by two fold serial broth dilution method. The test is classed as functional.
For test [2], the system named is Staphylococcus aureus. Briefly: Antibacterial activity against Staphylococcus aureus EP167 by two fold serial broth dilution method. The test is classed as functional.
Another test concerns Enterococcus faecalis. Briefly: Antibacterial activity against Enterococcus faecalis at 64 ug/mL by two fold serial broth dilution method. The test is classed as functional, organism-based.
Test [3] relates to Staphylococcus aureus. As to the kind of experiment: Antibacterial activity against Staphylococcus aureus Smith at 64 ug/mL by two fold serial broth dilution method. The format is functional, organism-based.
For the next test, the system named is Escherichia coli. Briefly: Antibacterial activity against Escherichia coli at 64 ug/mL by two fold serial broth dilution method. The test is classed as functional, organism-based.
Another test deals with Streptococcus pneumoniae. As to the kind of experiment: Antibacterial activity against Streptococcus pneumoniae at 64 ug/mL by two fold serial broth dilution method. The format is functional, organism-based.

In brackets after ≈: the same amount, converted by molar mass. Activity calls are given as the source filed them. The calls are words filed in the database; no cut-off is given here.

As for `O=C1C=C[C@H](O)[C@@H]2[C@@H]1C[C@@]13SS[C@]4(C[C@@H]5C(=O)C=C[C@H](O)[C@H]5N4C1=O)C(=O)N23` [EPICORAZINE A], the Ratio with Staphylococcus aureus [1] was found to be 8. Moreover, the MIC against Haemophilus influenzae stood at 0.5 µg/mL (≈ 1.19 µM); in the test with Staphylococcus aureus [2], 32 µg/mL (≈ 76.1 µM).
Take `CC(O)C1C(O)=C(C(=O)[C@H]2[C@@H]3CCCC[C@H]3C=C[C@H]2C)C(=O)N1C` (some centres undefined) [METHIOSETIN]: the MIC in the test on Haemophilus influenzae is 32 µg/mL (≈ 96 µM); against Staphylococcus aureus [2], 256 µg/mL (≈ 768 µM). Besides, the inhibition result in the test on Enterococcus faecalis, with Staphylococcus aureus [3], in the test on Escherichia coli and with Streptococcus pneumoniae was “inactive” in each case.
